This data set in a line: Human HepG2 cell viability assay in 384 well format. The format is toxicity, cell-based. Details: dose 125 nL, time 70.5 hour; cytotoxicity at 70.5 h: concentration not given beside the values. The following applies: HepG2 cells, read-out: Inhibition.
As for `CC(C(=O)Nc1sccc1C(N)=O)N(C)CCOc1ccccc1` (stereo not drawn), the cytotoxicity at 70.5 h was -20.6%. Regarding `O=C(c1cn(-c2ccccc2C(F)(F)F)nn1)N1CCSCC1`, the cytotoxicity at 70.5 h is -15.5%. As for `Cc1noc(C)c1CCC(=O)N1CCCCC1CNS(C)(=O)=O` (stereo not drawn), the figure is -7.67%.

As to `Cc1ccc(C(=O)NCc2cccnc2-n2cncn2)cc1S(C)(=O)=O`, the cytotoxicity at 70.5 h worked out at 17.5%. Under `CCSc1cc(C(=O)NC2CCN(C(=O)c3ccccc3)CC2)ccn1` stands -17.6%. As to `CN(C)c1ccc(C(=O)NCc2cccnc2-n2cncn2)cc1F`, the cytotoxicity at 70.5 h is -17.5%.

As to `O=S(=O)(Cc1ccccc1F)N1CCCC1c1nnc2n1CCCCC2` (stereo not drawn), the cytotoxicity at 70.5 h is -6.25%. As for `O=C(c1cccnc1O)N1CCN(Cc2ccccc2F)CC1`, the figure is 17.4%; as for `O=C(c1ccn(-c2ccccc2Cl)n1)N1CCCSCC1`, -3.62%.

As to `Cc1cc(C)n(-c2cncc(NCCNS(C)(=O)=O)n2)n1`, the cytotoxicity at 70.5 h turned out to be 2.9%. With `Cc1cc(C)n(-c2cncc(NCCNC(=O)c3cccnc3)n2)n1`, the cytotoxicity at 70.5 h was -3.57%. `O=C(c1cn(-c2ccccc2Cl)nn1)N1CCN(CCO)CC1`: the cytotoxicity at 70.5 h was -5.32%. Take `Cc1nc(CN(C)Cc2cc3c(cc2OC(F)F)OCO3)oc1C`: the cytotoxicity at 70.5 h came out at 4.89%. In the case of `Cc1noc(CCCC(=O)N2CCCCC2CNS(C)(=O)=O)n1` (stereo not drawn), the cytotoxicity at 70.5 h is -9.36%. Take `COc1cccc(CCC(=O)N2CCN(Cc3noc(C)n3)CC2)c1`: the cytotoxicity at 70.5 h was -0.347%. As for `CC(C)(C)OC(=O)NCC1CCCCN1Cc1ccncc1` (stereo not drawn), the figure is -1.8%.

Take `CCn1c(C)nnc1CN(C)C1CCN(Cc2sc(C)nc2C)C1` (stereo not drawn): the cytotoxicity at 70.5 h is 3.85%. Consider `Cc1ccc(F)cc1NC(=O)CNc1cccc2c1CCCC2`, for which the cytotoxicity at 70.5 h is -7.64%.

For the compound `Cn1c(Nc2ccc(F)cc2)c(C#N)c(=O)n(C)c1=O`, the cytotoxicity at 70.5 h is -4.76%. Consider `COc1cc(Nc2c(C#N)c(=O)n(C)c(=O)n2C)cc(OC)c1`, for which the cytotoxicity at 70.5 h is -6.16%. For `Cc1ccc(Nc2c(C#N)c(=O)n(C)c(=O)n2C)cc1F`, the cytotoxicity at 70.5 h is -4.93%.

In the case of `CCC(CNC(=O)NCc1cc[nH]n1)N1CCCC1` (stereo not drawn), the cytotoxicity at 70.5 h was -4.31%. Under `CC(C)(C)OC(=O)NCC1CCCCN1Cc1cccnc1` (stereo not drawn) stands -0.715%; under `CC1CCCN(C(=O)Cn2cc(I)cn2)C1` (stereo not drawn), -3.76%; under `CCC(C)(NCC(=O)NC(=O)NC)c1nc(C)cs1` (stereo not drawn), -4.2%. `COc1ccc(C(=O)Cn2cnnc2[S+](C)[O-])cc1Cl` (stereo not drawn): the cytotoxicity at 70.5 h is -3.44%. As for `Cc1ccc(NC(=O)NC(C)c2nc[nH]n2)cc1Cl` (stereo not drawn), the figure is -3.17%.

In the case of `C[S+]([O-])c1nncn1CC(=O)c1ccc(Br)cc1` (stereo not drawn), the cytotoxicity at 70.5 h was -5.18%. As for `Cc1nn(C)c(N(C)C)c1CNCc1cnn(Cc2ccccc2)c1`, the cytotoxicity at 70.5 h is -2.79%.

Consider `O=C(NCc1ccccn1)NCC(c1ccco1)N1CCCC1` (stereo not drawn), for which the cytotoxicity at 70.5 h is -1.51%. `Cc1nc(CN2CCN(C(=O)CCc3cccc(Cl)c3)CC2)no1`: the cytotoxicity at 70.5 h was determined as 13.5%. For `O=S(=O)(c1ccc(Cl)cc1)N1CCN(CCCn2ccnc2)CC1`, the cytotoxicity at 70.5 h is -1.12%. For `Cc1nn(C)c(N(C)C)c1CNCc1cccc(Cl)c1`, the cytotoxicity at 70.5 h stood at 0.245%. Turning to `COc1ccc(CN(C)Cc2cccc(C#N)c2)c(OC)c1`, the cytotoxicity at 70.5 h is -3.94%. Take `O=C(NCc1ccc(N2CCCC2)nc1)N1CCc2sccc2C1`: the cytotoxicity at 70.5 h is -0.866%. Take `O=C(Nc1ccccn1)c1nc(N2CCCC2)ncc1Cl`: the cytotoxicity at 70.5 h is -6.57%. As to `COc1cc(CN(C)C(=O)NCc2cccc3c2OCO3)ccc1SC`, the cytotoxicity at 70.5 h is -6.35%. For the compound `COc1cc(CN(C)C(=O)NCc2nccs2)ccc1SC`, the cytotoxicity at 70.5 h was -6.87%.

Consider `Cc1ccc(C(=O)NCCNS(C)(=O)=O)c(=O)[nH]1`, for which the cytotoxicity at 70.5 h was -3.54%. On to `Cc1ccc(C(=O)NCCCS(C)(=O)=O)c(=O)[nH]1`, for which the cytotoxicity at 70.5 h stood at 15.4%. Take `CCOCCCNC(=O)N(C)Cc1ccc(SC)c(OC)c1`: the cytotoxicity at 70.5 h came to 1.54%. `O=C(c1cc2c([nH]c1=O)CCC2)N1CCCC1c1ccc(F)cc1` (stereo not drawn): the cytotoxicity at 70.5 h is -3.95%.

Regarding `COCCN(CCC#N)S(=O)(=O)c1cc(F)cc(F)c1`, the cytotoxicity at 70.5 h came out at 3.86%. On to `COCCN(CCC#N)S(=O)(=O)c1ccc(F)cc1Cl`, for which the cytotoxicity at 70.5 h turned out to be 0.577%. As for `CC(C)n1c(C2CCCN(CC(N)=O)C2)nc2ccccc21` (stereo not drawn), the figure is -1.68%. For `CSc1cc2c(cc1NC(=O)NCc1ccco1)OCCO2`, the cytotoxicity at 70.5 h is -5.54%. Turning to `N#Cc1ccc(CNC2CCN(CCc3ccncc3)CC2)cc1`, the cytotoxicity at 70.5 h is -1.86%. For `CC(CNC(=O)N1CCS(=O)(=O)CC1)Cc1cccs1` (stereo not drawn), the cytotoxicity at 70.5 h was -1.72%. As for `CC(CNC(=O)N1CCN(c2ncccn2)CC1)Cc1cccs1` (stereo not drawn), the figure is 17.5%. As for `Oc1cccc(CNC2CCN(CCc3ccncc3)CC2)c1`, the cytotoxicity at 70.5 h is -1.4%.

Take `Fc1ccc(CNC2CCN(CCc3ccncc3)CC2)cc1F`: the cytotoxicity at 70.5 h is -3.84%. Under `Cc1cccc(CNC2CCN(CCc3ccncc3)CC2)c1C` stands -3.09%; under `CC(CNC(=O)N1CCC(CO)CC1)Cc1cccs1` (stereo not drawn), -3.99%. With `Cc1cnc(CN2CCCC(c3nc4ccccc4n3C(C)C)C2)o1` (stereo not drawn), the cytotoxicity at 70.5 h worked out at 20.6%. Turning to `O=C1CCc2cc(OCCN3CCc4cncnc4C3)ccc2N1`, the cytotoxicity at 70.5 h is -3.56%. For `Cc1noc(C)c1CNc1cccc(C(=O)N2CCCC(O)C2)c1` (stereo not drawn), the cytotoxicity at 70.5 h is -9.24%. For `COc1ccc(CC(=O)N(C)C2CCN(C)C2=O)cc1F` (stereo not drawn), the cytotoxicity at 70.5 h is -6.33%. As for `Cc1ncsc1-c1nc(-c2cccc(CN3CCOCC3)c2)no1`, the cytotoxicity at 70.5 h is -6.25%.

Regarding `CCN(CC(=O)Nc1c(C)n[nH]c1C)CC(O)c1ccc(C)cc1` (stereo not drawn), the cytotoxicity at 70.5 h was determined as 13.8%.

Take `CSC1(CNc2ncc(Br)cn2)CCOCC1`: the cytotoxicity at 70.5 h is -0.0448%. Regarding `Cc1n[nH]c(C2CN(CCCOc3ccc(F)cc3)CCO2)n1` (stereo not drawn), the cytotoxicity at 70.5 h was -12.3%. For the compound `CC(C)Nc1ncccc1C(=O)NCc1ncc[nH]1`, the cytotoxicity at 70.5 h is -1.28%. With `CNC(=O)Cc1nc(CNc2ccc(SC)c(F)c2)cs1`, the cytotoxicity at 70.5 h is -0.256%. Turning to `Cc1ccc(F)c(NCC(C)(C)S(C)(=O)=O)c1`, the cytotoxicity at 70.5 h is -2.22%. In the case of `COc1ccc(F)c(NCC(C)(C)S(C)(=O)=O)c1`, the cytotoxicity at 70.5 h is -4.68%. Take `CCN(C)S(=O)(=O)N(CC)Cc1cccc(-c2ccncc2)c1`: the cytotoxicity at 70.5 h is -4.01%. Under `CCc1n[nH]c(C2CN(CCCOc3cccc(C)c3)CCO2)n1` (stereo not drawn) stands -3.37%; under `CCN(CC(=O)Nc1c(C)nn(C)c1C)CC(O)c1ccc(C)cc1` (stereo not drawn), -5.69%.

As for `O=C(c1ccoc1)N1CCCCC1c1nc[nH]n1` (stereo not drawn), the cytotoxicity at 70.5 h is -1.78%.

Consider `CS(=O)(=O)CCCN1CCOC2(CCc3ccccc32)C1` (stereo not drawn), for which the cytotoxicity at 70.5 h stood at 0.769%. In the case of `c1ccc(CCN2CCOC3(CCc4ccccc43)C2)nc1` (stereo not drawn), the cytotoxicity at 70.5 h is -15.8%. Under `O=C(c1ccccc1)C1CCN(Cc2cc3c(cc2O)CCC3)CC1` stands 33.9%; under `CC(=O)c1c[nH]c(C(=O)N2CCN(C(C(N)=O)c3ccccc3)CC2)c1` (stereo not drawn), 47.9%; under `Cc1nc2ccccc2n(Cc2nnnn2C2CC2)c1=O`, -5.13%. On to `CCN(C(=O)c1ccccc1I)C1CC(=O)NC1=O` (stereo not drawn), for which the cytotoxicity at 70.5 h is 4.4%. For the compound `COc1cccc(CN(C(=O)Nc2nncs2)C2CCC(O)CC2)c1` (stereo not drawn), the cytotoxicity at 70.5 h was 0.476%. Regarding `CCCC(=O)NCC(=O)NC1CC(C)(C)Cc2oc(C)cc21` (stereo not drawn), the cytotoxicity at 70.5 h is -5.41%.

Take `CN(Cc1ccncc1)C(=O)c1ccc(F)c(NS(C)(=O)=O)c1`: the cytotoxicity at 70.5 h is -4.24%. With `O=C(Nc1ccnn1C1CCCC1)c1ccc(NC2CC2)nc1`, the cytotoxicity at 70.5 h stood at 3.1%. Consider `Cc1cc(NC(=O)CN2CCCC(Cn3cncn3)C2)on1` (stereo not drawn), for which the cytotoxicity at 70.5 h is -3%. Turning to `CC(C)(O)CNC(=O)c1sccc1Br`, the cytotoxicity at 70.5 h stood at 0.0507%. As for `Cc1cc(C(=O)N2CCOC(c3nc(C)n[nH]3)C2)[nH]n1` (stereo not drawn), the figure is 3.96%; as for `CC(C)NC(=O)NCCCOC1CCOCC1`, -4.28%; as for `CCC(NC(=O)Nc1cc(F)c(OC)c(F)c1)c1noc(C)n1` (stereo not drawn), 0.154%. As for `O=C(Nc1cccn(CC(F)(F)F)c1=O)c1ccncc1F`, the cytotoxicity at 70.5 h was -11.6%. Under `O=C(NC1CC1)NC(c1cc(F)ccc1F)C1CC1` (stereo not drawn) stands -5.9%; under `O=C(c1[nH]nc(C2CC2)c1Cl)N1CCCC1`, 3.72%. For `O=C(NC1CCN(C2CC2)CC1)c1[nH]nc(C2CC2)c1Cl`, the cytotoxicity at 70.5 h is -4.43%.

For the compound `Cc1nn(C)c(C)c1OCC(=O)N1CCC(O)(C(F)(F)F)CC1`, the cytotoxicity at 70.5 h is -6.23%. As for `CC(C)(C)c1cc(NC(=O)CN2CCCC(Cn3cncn3)C2)on1` (stereo not drawn), the figure is 25.7%; as for `Cc1cnn(CCCNC(=O)C2CCCCN2Cc2ccncc2)c1` (stereo not drawn), -4.19%. For the compound `Cc1nccn1CCCNC(=O)C1CCCCN1Cc1ccncc1` (stereo not drawn), the cytotoxicity at 70.5 h was -2.44%. With `CC(C)OCCN1CCN(C(=O)c2cc(-n3cccn3)ccn2)CC1`, the cytotoxicity at 70.5 h was -4.55%. As for `Cc1cnn(CCCNC(=O)C2CCCCN2Cc2cccnc2)c1` (stereo not drawn), the figure is 0.0952%; as for `CC(C)(C)c1cc(NC(=O)CN2CCCCC2Cn2cncn2)on1` (stereo not drawn), -5.88%. As for `CN(C)c1cccc(C(=O)N2CCn3c(nnc3-c3ccccc3)C2)c1`, the cytotoxicity at 70.5 h is -7.74%.

For `CN(C)C(CNC(=O)NCc1ccco1)c1cccs1` (stereo not drawn), the cytotoxicity at 70.5 h was -6.4%.

Regarding `Cc1nc(C2(NCc3cc(C#N)ccc3F)CCCCC2)no1`, the cytotoxicity at 70.5 h was -17.2%. Turning to `O=C(NCCn1ccnc1)c1cncc(Br)c1`, the cytotoxicity at 70.5 h stood at 19.8%. In the case of `NC(=O)CCS(=O)(=O)Cc1ccc(OCC(F)(F)F)cc1`, the cytotoxicity at 70.5 h is -9.93%. For the compound `CCN(CC)S(=O)(=O)NCCc1cc(C)ccc1OC`, the cytotoxicity at 70.5 h is -15.7%. On to `CCC1CN(c2cnn(C)c(=O)c2Br)CCO1` (stereo not drawn), for which the cytotoxicity at 70.5 h was -1.58%. Consider `CCSc1ccc(NC(=O)NC(C)c2c(C)noc2C)cn1` (stereo not drawn), for which the cytotoxicity at 70.5 h was -6.61%.

Source of the values: ChEMBL document CHEMBL3507680, “University of Dundee, Gates Library screen for HepG2 cell viability”.
